The values that follow are results of earlier work, collected in patent US12678402B2 (Nasus Pharma Ltd., priority 2020, dated 2026).

What is called Tmax is the time from dosing to the highest level.

One data set relates to nasal epithelia. The following applies: in vitro; dissolves in nasal fluid.
For data set [1] the following is noted: IN 1 mg up to 12 mg, different indications and formulations.

Read-outs that look alike come from different tables or passages of the source.

In the case of `CNC[C@H](O)c1ccc(O)c(O)c1` [Epinephrine], in the data set on nasal epithelia, the “absorption after deposition of the powder in the nasal cavity” value was “rapidly absorbed through the nasal epithelia”. Further, the “Cbaseline Mean (±SD)” value (0.3 mg IM) is recorded as 35 ± 23 pg/mL and the “Cbaseline Mean (±SD)” value (5 mg IN) is 8 ± 6 pg/mL. Moreover, where the note is “0.3 mg IM”, the Tmax is 1.12 ± 0.717 h. Further, the adverse events observed result (IN epinephrine in saline formulation, healthy adults) is “transient tremor was observed in one subject and palpitation in two subjects”. Also, the “heart rate and blood pressure changes” value (IN epinephrine in saline formulation, healthy adults, at Tmax) is “Increase in heart rate, and diastolic and systolic blood pressures occurred at Tmax. in most subjects”. Also, the serious adverse effects entry (after IN epinephrine administration, healthy adults) was “No serious adverse effects were observed”. Further, the serious adverse events result in data set [1] is “no serious adverse events”.
